For eleven compounds, IC50, EC50 and AC50 results are on record in ChEMBL document CHEMBL1201862, “PubChem BioAssay data set” (2004).

Calls of active or inactive are those of the source. Some results are limits rather than exact numbers.

The nature of assay [1]: Late stage assay provider results from the probe development effort to identify inhibitors of the Plasmodium falciparum M17 Leucine Aminopeptidase (M17LAP): radiolabel-based cell-based dose response assay to identify compounds that inhibit P. falciparum growth in RBCs Set 2. Format: functional.
A further assay concerns the target Melanocortin receptor 4 (Homo sapiens, UniProt P32245). Format: functional, cell-based.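 Also: Cell-based assay with luminescence read-out, confirmatory dose-response testing for agonist activity of biased ligands at MC4R; human U2OS cells with tagged receptor and beta-arrestin; potency of agonists that increase receptor coupling to beta-arrestin.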
The target in assay [2] is T1, Methionyl-tRNA synthetase, putative (Trypanosoma brucei brucei, UniProt Q38C91).
T1 sequence (Q38C91 whole entry): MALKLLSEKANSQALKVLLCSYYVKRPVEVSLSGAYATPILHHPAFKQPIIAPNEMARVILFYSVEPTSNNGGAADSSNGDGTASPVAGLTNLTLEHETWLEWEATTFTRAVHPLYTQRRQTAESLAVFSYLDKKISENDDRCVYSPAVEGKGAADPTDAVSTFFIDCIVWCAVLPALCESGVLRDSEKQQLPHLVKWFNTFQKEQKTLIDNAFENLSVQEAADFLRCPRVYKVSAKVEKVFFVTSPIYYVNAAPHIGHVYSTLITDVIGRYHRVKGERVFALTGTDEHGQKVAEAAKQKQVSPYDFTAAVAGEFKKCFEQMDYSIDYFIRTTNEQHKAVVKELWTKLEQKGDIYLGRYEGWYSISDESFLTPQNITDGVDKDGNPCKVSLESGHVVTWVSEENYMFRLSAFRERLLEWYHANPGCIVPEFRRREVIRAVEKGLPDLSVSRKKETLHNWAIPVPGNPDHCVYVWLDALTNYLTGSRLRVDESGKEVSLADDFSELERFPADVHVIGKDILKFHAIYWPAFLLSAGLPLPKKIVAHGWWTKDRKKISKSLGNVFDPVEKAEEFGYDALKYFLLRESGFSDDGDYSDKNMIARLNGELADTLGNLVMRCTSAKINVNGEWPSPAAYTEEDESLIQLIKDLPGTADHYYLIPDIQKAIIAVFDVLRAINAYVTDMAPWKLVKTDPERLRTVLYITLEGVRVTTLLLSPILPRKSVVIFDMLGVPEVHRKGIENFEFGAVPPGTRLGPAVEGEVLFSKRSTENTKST
Format: functional, Trypanosoma brucei brucei strain 927/4 GUTat10.1.

Assay [3] is described as follows: Counterscreen for inhibitors of Trypanosoma brucei methionyl tRNA synthetase (MetRS): Luminescence-based cell-based high throughput dose response assay to identify compounds that are cytotoxic to Jurkat human T lymphocyte cells. Format: functional.
Assay [4] addresses T1, Methionyl-tRNA synthetase, putative. It is filed as functional, Trypanosoma brucei brucei strain 927/4 GUTat10.1. The source holds these as a separate data set.
In assay [5] the target is T2, Ubiquitin-conjugating enzyme E2 N (Homo sapiens, UniProt P61088).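 Also: Dose-response confirmation in a TR-FRET assay detecting UBC13-driven polyubiquitin chain formation, inhibition measured.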
T2 sequence (P61088 whole entry): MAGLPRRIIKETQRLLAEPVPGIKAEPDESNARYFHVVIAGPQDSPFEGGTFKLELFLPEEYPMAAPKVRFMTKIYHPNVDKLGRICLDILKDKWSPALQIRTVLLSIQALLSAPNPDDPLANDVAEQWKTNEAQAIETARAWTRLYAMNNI
It is filed as functional.

Assay [6] concerns the target T3, Sentrin-specific protease 8 (Homo sapiens, UniProt Q96LD8).
T3 sequence (Q96LD8 whole entry): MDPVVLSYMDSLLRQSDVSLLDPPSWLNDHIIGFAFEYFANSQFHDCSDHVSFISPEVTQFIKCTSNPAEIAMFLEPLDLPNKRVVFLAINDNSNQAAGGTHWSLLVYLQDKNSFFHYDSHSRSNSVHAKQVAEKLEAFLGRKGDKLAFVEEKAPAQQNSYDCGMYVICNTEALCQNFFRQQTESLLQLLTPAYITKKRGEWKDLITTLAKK
Format: functional.

Assay [7] concerns the target T3, Sentrin-specific protease 8. Format: functional. The source holds these as a separate data set.
The target of assay [8] is T4, Apoptotic protease-activating factor 1 (Homo sapiens, UniProt O14727).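 Also: caspase-3 cleavage of fluorogenic Rh110 DEVD substrate downstream of apoptosome activation.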
T4 sequence (O14727 whole entry): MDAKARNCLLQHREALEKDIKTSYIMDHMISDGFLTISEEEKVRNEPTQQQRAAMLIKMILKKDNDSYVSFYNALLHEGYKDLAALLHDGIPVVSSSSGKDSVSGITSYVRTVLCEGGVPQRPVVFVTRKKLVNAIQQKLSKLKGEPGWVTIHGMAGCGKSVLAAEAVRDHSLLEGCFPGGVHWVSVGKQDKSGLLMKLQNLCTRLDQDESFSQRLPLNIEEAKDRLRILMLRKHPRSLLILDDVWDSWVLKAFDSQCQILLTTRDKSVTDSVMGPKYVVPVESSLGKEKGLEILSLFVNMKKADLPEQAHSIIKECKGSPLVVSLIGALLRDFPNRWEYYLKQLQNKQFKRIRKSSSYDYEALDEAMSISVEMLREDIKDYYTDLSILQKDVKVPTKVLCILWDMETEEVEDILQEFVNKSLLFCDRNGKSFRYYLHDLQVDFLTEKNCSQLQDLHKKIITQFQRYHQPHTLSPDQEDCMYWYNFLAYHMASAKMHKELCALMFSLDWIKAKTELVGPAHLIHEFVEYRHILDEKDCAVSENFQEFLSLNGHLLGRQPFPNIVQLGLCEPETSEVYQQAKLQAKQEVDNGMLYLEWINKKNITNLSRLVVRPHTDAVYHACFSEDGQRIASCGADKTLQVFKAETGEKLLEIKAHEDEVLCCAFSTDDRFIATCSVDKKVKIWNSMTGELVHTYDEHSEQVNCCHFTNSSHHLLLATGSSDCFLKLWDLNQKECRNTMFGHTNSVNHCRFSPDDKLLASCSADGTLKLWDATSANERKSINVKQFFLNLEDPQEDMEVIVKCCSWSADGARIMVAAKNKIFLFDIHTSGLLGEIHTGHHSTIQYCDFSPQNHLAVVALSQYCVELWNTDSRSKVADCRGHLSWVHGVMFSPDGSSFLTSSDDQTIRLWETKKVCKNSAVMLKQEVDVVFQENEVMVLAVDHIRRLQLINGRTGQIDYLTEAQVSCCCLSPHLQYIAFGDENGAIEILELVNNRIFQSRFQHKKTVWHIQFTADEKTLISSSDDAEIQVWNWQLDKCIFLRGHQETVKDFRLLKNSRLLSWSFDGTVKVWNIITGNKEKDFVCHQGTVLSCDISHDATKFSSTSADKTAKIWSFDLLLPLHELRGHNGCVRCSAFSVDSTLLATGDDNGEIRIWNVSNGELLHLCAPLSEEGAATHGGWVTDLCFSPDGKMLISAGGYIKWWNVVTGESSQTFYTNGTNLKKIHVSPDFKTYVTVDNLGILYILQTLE
The assay is described as follows: SAR analysis of small molecule Activators of Apaf-1 in a Fluorescent assay. As to conditions: read-out: EC50_Mean. Format: functional.

For assay [9], the target named is DNA (cytosine-5)-methyltransferase 1 (Homo sapiens, UniProt P26358). The assay is described as follows: DNMT1 methyltransferase inhibitors, confirmation, biochemical, fluorescent molecular beacon (AID 602386). It is filed as functional.
Assay [10] deals with T5, Low molecular weight phosphotyrosine protein phosphatase (Homo sapiens, UniProt P24666).
T5 sequence (P24666 whole entry): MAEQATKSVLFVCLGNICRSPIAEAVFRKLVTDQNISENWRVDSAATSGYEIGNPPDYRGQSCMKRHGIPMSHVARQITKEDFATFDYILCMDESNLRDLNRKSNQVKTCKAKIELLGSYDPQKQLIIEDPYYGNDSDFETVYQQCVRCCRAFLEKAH
Format: functional. As to conditions: read-out: IC50_Mean.

Another assay concerns Escherichia coli. The assay is described as follows: microbe, parasite or virus in culture.
Assay [11] has as its target T6, Heat shock factor protein 1 (Mus musculus, UniProt P38532).
T6 sequence (P38532 whole entry): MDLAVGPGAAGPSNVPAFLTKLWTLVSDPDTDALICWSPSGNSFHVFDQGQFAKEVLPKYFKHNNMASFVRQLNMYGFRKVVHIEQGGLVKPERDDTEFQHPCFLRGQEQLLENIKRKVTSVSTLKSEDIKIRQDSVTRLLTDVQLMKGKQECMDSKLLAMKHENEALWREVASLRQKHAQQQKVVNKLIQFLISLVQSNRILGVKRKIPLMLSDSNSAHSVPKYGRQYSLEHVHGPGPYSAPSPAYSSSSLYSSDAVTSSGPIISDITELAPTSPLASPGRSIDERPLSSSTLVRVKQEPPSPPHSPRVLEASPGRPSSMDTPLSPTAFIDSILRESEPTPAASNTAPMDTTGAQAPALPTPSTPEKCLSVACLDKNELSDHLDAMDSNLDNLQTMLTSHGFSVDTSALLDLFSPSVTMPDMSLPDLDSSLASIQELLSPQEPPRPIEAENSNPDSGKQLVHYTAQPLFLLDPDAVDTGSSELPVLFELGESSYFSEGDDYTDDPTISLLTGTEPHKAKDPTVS
The assay is described as follows: inhibition of MG132-induced HSE-luciferase signal, confirmation, cell-based, NIH3T3, luminescence, dose retest (AID 2382).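 Also: NIH3T3 fibroblasts with HSF1-driven luciferase reporter stressed by proteasome inhibitor MG132; luminescence from HSF1-driven luciferase expression after 8 hours of MG132 stress.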 Format: functional.

In a further assay the test system is H9c2. In words: cells. Format: functional, cell-based. The following applies: Rattus norvegicus, H9c2, Myocardium.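 Also: confirmatory concentration-response retest of ultra-high-throughput screening hits for modulation of myocardial damage; cell death induced by hydrogen peroxide oxidative stress; compound pretreatment for 60 min then peroxide exposure for 2 h; potency is for protecting the cells against peroxide damage rather than for killing them.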
In a further assay the target is T7, Interleukin-8 (Homo sapiens, UniProt P10145).
T7 sequence (P10145 whole entry): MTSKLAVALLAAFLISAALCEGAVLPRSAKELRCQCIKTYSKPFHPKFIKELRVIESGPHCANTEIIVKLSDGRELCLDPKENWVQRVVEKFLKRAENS
The assay is described as follows: Dose Response confirmation of uHTS small molecule hits for cystic fibrosis induced NFkb Inhibitors in a PAF-induced IL8 counterscreen. Format: functional. The following applies: read-out: IC50_Mean. A general note: Counterscreens check selectivity or assay interference.

Melanocortin receptor 4, sequence (P32245 whole entry): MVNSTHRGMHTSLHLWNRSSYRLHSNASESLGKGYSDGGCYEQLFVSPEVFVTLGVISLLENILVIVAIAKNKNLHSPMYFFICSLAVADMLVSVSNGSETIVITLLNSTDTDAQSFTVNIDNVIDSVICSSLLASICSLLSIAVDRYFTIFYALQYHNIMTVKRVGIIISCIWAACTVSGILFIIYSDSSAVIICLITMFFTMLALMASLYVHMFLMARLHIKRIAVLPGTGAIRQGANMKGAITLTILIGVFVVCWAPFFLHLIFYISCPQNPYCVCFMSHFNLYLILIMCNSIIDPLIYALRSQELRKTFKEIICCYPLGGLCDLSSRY
DNA (cytosine-5)-methyltransferase 1, sequence (P26358 whole entry): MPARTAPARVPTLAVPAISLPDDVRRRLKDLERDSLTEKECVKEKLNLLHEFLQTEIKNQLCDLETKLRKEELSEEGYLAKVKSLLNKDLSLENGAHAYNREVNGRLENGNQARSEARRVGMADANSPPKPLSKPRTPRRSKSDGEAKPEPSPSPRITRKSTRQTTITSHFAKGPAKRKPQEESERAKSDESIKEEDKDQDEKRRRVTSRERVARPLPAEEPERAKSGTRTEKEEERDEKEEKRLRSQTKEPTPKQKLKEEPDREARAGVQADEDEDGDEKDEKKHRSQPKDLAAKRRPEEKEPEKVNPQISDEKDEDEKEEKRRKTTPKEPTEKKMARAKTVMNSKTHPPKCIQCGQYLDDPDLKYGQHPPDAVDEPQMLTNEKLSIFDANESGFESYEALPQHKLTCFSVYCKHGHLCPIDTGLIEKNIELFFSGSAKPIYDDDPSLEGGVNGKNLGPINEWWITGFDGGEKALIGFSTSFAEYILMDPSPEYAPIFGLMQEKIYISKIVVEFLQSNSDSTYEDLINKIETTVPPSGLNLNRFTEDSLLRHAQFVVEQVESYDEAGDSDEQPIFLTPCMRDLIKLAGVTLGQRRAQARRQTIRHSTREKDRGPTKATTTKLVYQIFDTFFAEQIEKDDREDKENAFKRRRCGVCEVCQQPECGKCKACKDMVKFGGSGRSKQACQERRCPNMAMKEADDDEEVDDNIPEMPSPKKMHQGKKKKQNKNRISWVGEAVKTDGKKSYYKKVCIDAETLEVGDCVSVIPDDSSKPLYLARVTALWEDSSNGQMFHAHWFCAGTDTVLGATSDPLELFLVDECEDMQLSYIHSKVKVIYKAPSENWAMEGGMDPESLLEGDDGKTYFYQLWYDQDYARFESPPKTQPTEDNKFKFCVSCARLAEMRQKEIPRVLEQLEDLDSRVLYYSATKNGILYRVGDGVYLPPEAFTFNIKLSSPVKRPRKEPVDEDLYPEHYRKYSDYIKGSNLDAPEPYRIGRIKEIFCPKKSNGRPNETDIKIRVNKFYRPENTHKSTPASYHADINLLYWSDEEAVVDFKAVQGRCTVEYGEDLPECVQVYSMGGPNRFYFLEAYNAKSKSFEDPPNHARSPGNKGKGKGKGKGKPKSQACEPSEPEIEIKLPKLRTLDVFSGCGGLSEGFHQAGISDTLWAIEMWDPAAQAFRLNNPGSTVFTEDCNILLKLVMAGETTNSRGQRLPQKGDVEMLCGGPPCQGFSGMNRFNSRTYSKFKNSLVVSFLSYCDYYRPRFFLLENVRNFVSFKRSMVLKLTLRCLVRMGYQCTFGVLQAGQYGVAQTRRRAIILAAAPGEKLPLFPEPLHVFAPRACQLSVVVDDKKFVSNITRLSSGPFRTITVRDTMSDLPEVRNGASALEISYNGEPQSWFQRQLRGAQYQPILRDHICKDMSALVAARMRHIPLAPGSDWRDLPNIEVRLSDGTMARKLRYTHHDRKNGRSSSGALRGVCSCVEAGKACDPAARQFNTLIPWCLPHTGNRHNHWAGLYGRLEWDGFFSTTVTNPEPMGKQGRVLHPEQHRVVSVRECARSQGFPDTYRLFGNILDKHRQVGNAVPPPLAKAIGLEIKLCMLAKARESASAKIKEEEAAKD

Turning to `O=C(Cc1ccc2c(c1)CCCC2)NO`, in assay [1], the IC50 was 5.5 µM (active). For the compound `CCOc1ccc(Cn2c3ccc(OC)cc3c3nc4ccccc4nc32)cc1`, the EC50 at Melanocortin receptor 4 is > 89.2 µM (inactive). On to `Cc1cc(C)c2sc(N(CCCN(C)C)C(=O)c3ccc(Br)s3)nc2c1`, for which the EC50 at Melanocortin receptor 4 is > 89.2 µM (inactive). For `O=C(CC(=O)Nc1cccc(Cl)c1)N/N=C\c1ccccc1`, the results for the IC50 in [2], in [3] and in assay [4] were 6.25 µM (active), 83.3 µM (inactive) and 3.94 µM (active), respectively. On to `COc1cc2c(c(OC)c1OC)-c1ccc(O)c(=O)cc1[C@@H](N)CC2`, for which the figures for the IC50 in assay [5], in assay [6] and in assay [7] were > 20 µM (inactive), > 100 µM (inactive) and 25.7 µM (active), respectively. `Cc1cc(C)n(CC(C)C(=O)Nc2ccc(Cl)c(Cl)c2)n1` (stereo not drawn): the EC50 in assay [8] is > 100 µM (inactive).

With `CC(=O)c1cccc(OCC(=O)N(C)CC(=O)NCc2ccco2)c1`, the IC50 in [9] is 6.09 µM (active). Consider `CCn1cc(C(=O)O)c(=O)c2cc(F)c(N3CCN(C(=S)NC(=O)c4ccc(F)c(F)c4)CC3)cc21`, for which, in assay [10], the IC50 was 16.6 µM (active). Also, in the assay with Escherichia coli, the AC50 was 3.38 µM (active). Consider `CC(C)COc1ccc(CC(=O)NO)cc1`, for which the IC50 in assay [1] is 7.4 µM (active). As to `CCOc1ccc(-n2c(C)c(C(C)=O)c3cc(OC(C)=O)ccc32)cc1`, in [11], the EC50 is 24.6 µM (active). Besides, the values for the IC50 with H9c2 and at Interleukin-8 were 9.08 µM (active) and > 79 µM (inactive), respectively. Regarding `COC(=O)c1coc(-c2ccc(-c3ccccc3)cc2)n1`, in assay [8], the EC50 is > 100 µM (inactive).

In general, AC50 refers to the concentration at which the activity in the assay is half-maximal.
